Like-named read-outs stand apart in the source and are kept apart here.
Tests used:
[1] = target: T1, PfCRT^Ecu1110 (Plasmodium falciparum, UniProt Q9N623, A220S/I356L/K76T/N326D); assay: cell-based; conditions: mean ± SEM, n = 5, SEM
Procedure: (§1) The characterisation of [^3H]VF-6 transport via 23 different field and laboratory-derived isoforms of PfCRT was undertaken with oocytes two days post-cRNA-injection (Figs. 3a–j, 4; Supplementary Fig. 2). The oocytes were injected with 25 nL of ND96 buffer (pH 5.5) supplemented with [^3H]VF-6 and unlabelled VF-6 to achieve estimated intracellular concentrations of 1.4 and 200 μM, respectively. Ten oocytes that had resealed at the injection site were transferred to a 5 mL polystyrene round bottom tube (In Vitro Technologies) and washed with 3.5 mL of ND96 buffer before being transferred to separate wells of a white 96-well plate (PerkinElmer). This treatment served to establish the amount of radioactivity within the oocytes immediately prior to the commencement of the transport assay. Another 10 resealed oocytes were transferred to a 5 mL tube and washed with 3.5 mL of ND96 buffer. […] The assay was terminated by removing the reaction buffer with a pipette and washing the oocytes twice with 3.5 mL of ice-cold ND96 buffer. Each oocyte was transferred to a separate well of a white 96-well plate. The oocytes were lysed by the addition of 20 μL of 10% (w/v) SDS and overnight incubation at room temperature. The lysed oocyte was then combined with 150 μL of MicroScint-40 microscintillant (PerkinElmer), the plate covered with a TopSeal-A (PerkinElmer), and the radioactivity measured with a MicroBeta^2 microplate liquid scintillation analyser (PerkinElmer). VF-6 transport was calculated by subtracting the amount of radioactivity (measured in counts per minute) present within the oocytes at the end of the incubation from that measured in the oocytes sampled immediately before the commencement of the assay. The pH-dependence of transport (Fig. 3c) was determined by injecting the oocytes with [^3H]VF-6 suspended in 25 nL ND96 buffer adjusted to pH 5.0, 5.5, 6.0 or 7.0, which corresponded to the injection of 2.5–250 fmol of H^+. The dependence of [^3H]VF-6 transport on Na^+ or Cl^− was examined by injecting the oocytes with [^3H]VF-6 suspended in the control ND96 buffer (pH 5.5) or a version of this buffer that lacked either Na^+ or Cl^− (Supplementary Fig. 2). […] The dependence of peptide transport on Ca^2+ was determined by injecting the oocytes with [^3H]VF-6 suspended in ND96 buffers that contained different concentrations of Ca^2+ (0–5 mM; Supplementary Fig. 2). […] The dependence of PfCRT-mediated transport on the membrane potential was examined by using (1) Na^+ ionophore III in conjunction with the Na^+ gradients listed in Supplementary Data 7 and (2) Cl^− ionophore III in conjunction with the Cl^− gradients listed in Supplementary Data 7 to clamp the membrane potential of the oocyte from −80 to +80 mV. […] The kinetic parameters for VF-6 transport via different isoforms of PfCRT (Figs. 3e and 4a) were determined in SigmaPlot Windows Version 11.0 by a least-squares fit of the Michaelis–Menten equation to the data.
(§2) A subset of assays measured the ability of solutes known to interact with PfCRT to either cis-inhibit, trans-inhibit or trans-stimulate [^3H]VF-6 transport. These experiments involved adding these solutes to either the cis- or trans-side of the membrane relative to [^3H]VF-6. […] At least five independent experiments were performed (on different days and using oocytes from different frogs), and within each experiment measurements were made from ten oocytes per treatment.

[2] = target: T2, PfCRT^3D7 (Plasmodium falciparum, UniProt Q8IBZ9); assay: cell-based; conditions: mean ± SEM, n = 5, SEM
T2 sequence (Q8IBZ9 59-398): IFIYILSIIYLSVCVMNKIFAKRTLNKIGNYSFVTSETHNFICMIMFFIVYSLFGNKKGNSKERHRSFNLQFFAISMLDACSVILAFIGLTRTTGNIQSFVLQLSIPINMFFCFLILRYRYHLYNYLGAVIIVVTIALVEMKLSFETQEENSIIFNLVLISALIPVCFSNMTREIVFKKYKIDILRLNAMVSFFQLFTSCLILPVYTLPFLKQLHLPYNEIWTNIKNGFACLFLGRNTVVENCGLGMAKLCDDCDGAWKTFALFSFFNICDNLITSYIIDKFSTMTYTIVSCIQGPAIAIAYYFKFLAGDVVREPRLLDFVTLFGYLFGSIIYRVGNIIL
Procedure: as §1, §2

[3] = target: T3, PfCRT^Dd2 (Plasmodium falciparum, UniProt Q9N623, A220S/I356T/K76T/M74I/N326S/N75E/Q271E/R371I); assay: cell-based; conditions: mean ± SEM, n = 5, SEM
T3 sequence (Q9N623 whole entry A220S/I356T/K76T/M74I/N326S/N75E/Q271E/R371I): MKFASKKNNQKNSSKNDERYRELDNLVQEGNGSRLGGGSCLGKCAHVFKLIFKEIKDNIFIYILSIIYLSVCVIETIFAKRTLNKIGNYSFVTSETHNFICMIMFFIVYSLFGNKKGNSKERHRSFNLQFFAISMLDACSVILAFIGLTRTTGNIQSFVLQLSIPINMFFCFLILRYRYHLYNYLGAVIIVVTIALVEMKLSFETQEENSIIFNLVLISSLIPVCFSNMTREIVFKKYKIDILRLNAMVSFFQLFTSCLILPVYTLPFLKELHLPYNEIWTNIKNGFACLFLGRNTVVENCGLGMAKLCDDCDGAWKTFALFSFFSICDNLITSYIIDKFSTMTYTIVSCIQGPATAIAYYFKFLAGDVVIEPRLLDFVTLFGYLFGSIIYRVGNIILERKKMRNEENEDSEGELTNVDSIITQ
Procedure: as §1, §2

[4] = target: T1, PfCRT^Ecu1110; assay: [3H]CQ uptake into Xenopus oocytes, cis-inhibition by unlabelled solute; type: cell-based; conditions: for PfCRT-mediated [3H]CQ transport, cis-inhibition (% PfCRTEcu1110 control): PfCRTEcu1110 oocytes, background [3H]CQ accumulation subtracted, normalised to oocyte type control; for [3H]CQ transport (% PfCRTEcu1110 control), cis-inhibition, PfCRTEcu1110: PfCRT-mediated component (background subtracted), sheet title says normalised to PfCRTDd2 control, mean ± SEM, SEM
Method in brief: (§3)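 Oocytes expressing PfCRT isoforms, or non-expressing controls, were incubated 1.5 h at 27.5 °C in ND96 buffer pH 5.5 (96 mM NaCl, 2 mM KCl, 1 mM MgCl2, 1.8 mM CaCl2, 10 mM MES, 10 mM Tris-base), measuring uptake from acidic medium into cytosol. Oocytes were washed ice-cold, SDS-lysed and counted by scintillation.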

[5] = target: T3, PfCRT^Dd2; assay: as above; type: cell-based; conditions: PfCRTDd2 oocytes, background [3H]CQ accumulation subtracted, normalised to oocyte type control
Method in brief: as §3

[6] = target: T1, PfCRT^Ecu1110; assay: cell-based; type: cell-based; conditions: for PfCRT-mediated [3H]CQ transport, trans-stimulation (% PfCRTEcu1110 control): PfCRTEcu1110 oocytes, normalised to oocyte type control; for [3H]CQ transport (% PfCRTDd2 control), trans-stimulation, PfCRTEcu1110: PfCRT-mediated component (background subtracted), sheet title says normalised to PfCRTDd2 control, mean ± SEM, SEM
Method in brief: (§4)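 Transport measured in Xenopus oocytes expressing the transporters, 1.5 h at 27.5 °C in ND96 pH 5.5 unless noted. For trans-stimulation, VF-6 injected in 25 nL ND96 at pH 5.0–7.0 or Na^+-free (choline) buffer; intracellular levels based on ~400 nL oocyte volume. Ten oocytes per treatment, ≥4 experiments.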

[7] = target: T2, PfCRT^3D7; assay: cell-based; type: cell-based; conditions: PfCRT3D7 oocytes, normalised to oocyte type control
Method in brief: as §4

[8] = target: T3, PfCRT^Dd2; assay: cell-based; type: cell-based; conditions: for PfCRT-mediated [3H]CQ transport, trans-stimulation (% PfCRTDd2 control): PfCRTDd2 oocytes, normalised to oocyte type control; for [3H]CQ transport (% PfCRTDd2 control), trans-stimulation, PfCRTDd2: PfCRT-mediated component (background subtracted), mean ± SEM, SEM
Method in brief: as §4

[9] = tested on: PfCRT; assay: Potential co-substrates tested for influx of VF-6 via PfCRT into the oocyte; type: cell-based, Plasmodium falciparum; set-up: key: X: Compounds that have been tested as potential co-substrates but are not required for influx of VF-6 via PfCRT into the oocyte
[10] = [test solute]i = 5 mM (intracellular)
[11] = [test solute]i = 45 mM (intracellular; 30 mM for some solutes due to solubility)
[12] = [test solute]i = 5 mM (injected)
[13] = [test solute]i = 45 mM (30 mM for some solutes due to solubility)

T1 sequence (Q9N623 whole entry A220S/I356L/K76T/N326D, canonical isoform): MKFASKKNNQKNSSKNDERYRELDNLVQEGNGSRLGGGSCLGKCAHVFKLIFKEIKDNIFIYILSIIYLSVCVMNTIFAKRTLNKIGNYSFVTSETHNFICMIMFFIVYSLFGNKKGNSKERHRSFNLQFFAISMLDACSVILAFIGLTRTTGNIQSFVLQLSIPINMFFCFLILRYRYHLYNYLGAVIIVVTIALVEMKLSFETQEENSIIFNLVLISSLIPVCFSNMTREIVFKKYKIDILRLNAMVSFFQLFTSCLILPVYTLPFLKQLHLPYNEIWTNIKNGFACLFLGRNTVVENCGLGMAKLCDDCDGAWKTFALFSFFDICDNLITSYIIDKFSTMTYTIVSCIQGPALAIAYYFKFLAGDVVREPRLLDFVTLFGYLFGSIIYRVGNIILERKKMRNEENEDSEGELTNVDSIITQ

CN(C)CCC(c1ccc(Cl)cc1)c1ccccn1 (stereo not shown) [CP, chlorpheniramine, reference compound]
IC50 ([1]; Cis-inhibition IC50 of [3H]VF-6 transport, PfCRTEcu1110, drug on same side as [3H]VF-6): 6.2 ± 0.3 µM | IC50 ([1]; Trans-inhibition IC50 of [3H]VF-6 transport, PfCRTEcu1110, drug on opposite side to [3H]VF-6): 7.2 ± 0.2 µM | IC50 ([2]; drug on opposite side to [3H]VF-6, read-out: Trans-inhibition IC50 of [3H]VF-6 transport, PfCRT3D7): 12 ± 0.7 µM | IC50 ([2]; drug on same side as [3H]VF-6, read-out: Cis-inhibition IC50 of [3H]VF-6 transport, PfCRT3D7): 9.8 ± 0.5 µM | IC50 ([3]; Cis-inhibition IC50 of [3H]VF-6 transport, PfCRTDd2, drug on same side as [3H]VF-6): 5 ± 1.1 µM | IC50 ([3]; Trans-inhibition IC50 of [3H]VF-6 transport, PfCRTDd2, drug on opposite side to [3H]VF-6): 8.8 ± 0.3 µM

DPVNF [DF-5]
PfCRT-mediated [3H]CQ transport, cis-inhibition (% PfCRTEcu1110 control) ([4]; [test solute] = 0.5 mM): 40 ± 2.1 % PfCRTEcu1110 control | PfCRT-mediated [3H]CQ transport, cis-inhibition (% PfCRTEcu1110 control) ([4]; [test solute] = 1 mM): 32 ± 1.6 % PfCRTEcu1110 control | PfCRT-mediated [3H]CQ transport, cis-inhibition (% PfCRTEcu1110 control) ([4]; [test solute] = 2 mM): 21 ± 1.0 % PfCRTEcu1110 control | [3H]CQ transport (% PfCRTEcu1110 control), cis-inhibition, PfCRTEcu1110 ([4]; [test solute] = 2 mM): 7.0 ± 0.1 % PfCRTEcu1110 control | PfCRT-mediated [3H]CQ transport, cis-inhibition (% PfCRTDd2 control) ([5]; [test solute] = 0.5 mM): 38 ± 3.1 % PfCRTDd2 control | PfCRT-mediated [3H]CQ transport, cis-inhibition (% PfCRTDd2 control) ([5]; [test solute] = 1 mM): 27 ± 0.9 % PfCRTDd2 control | PfCRT-mediated [3H]CQ transport, cis-inhibition (% PfCRTDd2 control) ([5]; [test solute] = 2 mM): 15 ± 0.5 % PfCRTDd2 control | PfCRT-mediated [3H]CQ transport, trans-stimulation (% PfCRTEcu1110 control) [6, 10]: 120 ± 2.4 % PfCRTEcu1110 control | PfCRT-mediated [3H]CQ transport, trans-stimulation (% PfCRTEcu1110 control) [6, 11]: 128 ± 2.9 % PfCRTEcu1110 control | [3H]CQ transport (% PfCRTDd2 control), trans-stimulation, PfCRTEcu1110 [6, 12]: 36 ± 1.3 % PfCRTEcu1110 control | [3H]CQ transport (% PfCRTDd2 control), trans-stimulation, PfCRTEcu1110 [6, 13]: 39 ± 1.8 % PfCRTEcu1110 control | PfCRT-mediated [3H]CQ transport, trans-stimulation (% PfCRT3D7 control) [7, 10]: 128 ± 3.1 % PfCRT3D7 control | PfCRT-mediated [3H]CQ transport, trans-stimulation (% PfCRT3D7 control) [7, 11]: 158 ± 4.2 % PfCRT3D7 control | PfCRT-mediated [3H]CQ transport, trans-stimulation (% PfCRTDd2 control) [8, 10]: 101 ± 3.5 % PfCRTDd2 control | PfCRT-mediated [3H]CQ transport, trans-stimulation (% PfCRTDd2 control) [8, 11]: 113 ± 1.2 % PfCRTDd2 control | [3H]CQ transport (% PfCRTDd2 control), trans-stimulation, PfCRTDd2 [8, 12]: 101 ± 3.5 % PfCRTDd2 control | [3H]CQ transport (% PfCRTDd2 control), trans-stimulation, PfCRTDd2 [8, 13]: 113 ± 1.2 % PfCRTDd2 control | Tested as potential co-substrate but not required for influx of VF-6 via PfCRT into the oocyte [9]: X

VDPVN [VN-5]
PfCRT-mediated [3H]CQ transport, cis-inhibition (% PfCRTEcu1110 control) ([4]; [test solute] = 0.5 mM): 52 ± 1.8 % PfCRTEcu1110 control | PfCRT-mediated [3H]CQ transport, cis-inhibition (% PfCRTEcu1110 control) ([4]; [test solute] = 1 mM): 38 ± 2.6 % PfCRTEcu1110 control | PfCRT-mediated [3H]CQ transport, cis-inhibition (% PfCRTEcu1110 control) ([4]; [test solute] = 2 mM): 27 ± 0.5 % PfCRTEcu1110 control | [3H]CQ transport (% PfCRTEcu1110 control), cis-inhibition, PfCRTEcu1110 ([4]; [test solute] = 0.5 mM): 16 ± 0.4 % PfCRTEcu1110 control | [3H]CQ transport (% PfCRTEcu1110 control), cis-inhibition, PfCRTEcu1110 ([4]; [test solute] = 2 mM): 9.0 ± 0.2 % PfCRTEcu1110 control | PfCRT-mediated [3H]CQ transport, cis-inhibition (% PfCRTDd2 control) ([5]; [test solute] = 0.5 mM): 42 ± 2.7 % PfCRTDd2 control | PfCRT-mediated [3H]CQ transport, cis-inhibition (% PfCRTDd2 control) ([5]; [test solute] = 1 mM): 30 ± 3.0 % PfCRTDd2 control | PfCRT-mediated [3H]CQ transport, cis-inhibition (% PfCRTDd2 control) ([5]; [test solute] = 2 mM): 19 ± 0.3 % PfCRTDd2 control | PfCRT-mediated [3H]CQ transport, trans-stimulation (% PfCRTEcu1110 control) [6, 10]: 128 ± 3.6 % PfCRTEcu1110 control | PfCRT-mediated [3H]CQ transport, trans-stimulation (% PfCRTEcu1110 control) [6, 11]: 136 ± 3.5 % PfCRTEcu1110 control | [3H]CQ transport (% PfCRTDd2 control), trans-stimulation, PfCRTEcu1110 [6, 12]: 39 ± 1.5 % PfCRTEcu1110 control | [3H]CQ transport (% PfCRTDd2 control), trans-stimulation, PfCRTEcu1110 [6, 13]: 41 ± 1.9 % PfCRTEcu1110 control | PfCRT-mediated [3H]CQ transport, trans-stimulation (% PfCRT3D7 control) [7, 10]: 131 ± 4.6 % PfCRT3D7 control | PfCRT-mediated [3H]CQ transport, trans-stimulation (% PfCRT3D7 control) [7, 11]: 181 ± 5.7 % PfCRT3D7 control | PfCRT-mediated [3H]CQ transport, trans-stimulation (% PfCRTDd2 control) [8, 10]: 101 ± 3.5 % PfCRTDd2 control | PfCRT-mediated [3H]CQ transport, trans-stimulation (% PfCRTDd2 control) [8, 11]: 112 ± 1.4 % PfCRTDd2 control | [3H]CQ transport (% PfCRTDd2 control), trans-stimulation, PfCRTDd2 [8, 12]: 101 ± 3.5 % PfCRTDd2 control | [3H]CQ transport (% PfCRTDd2 control), trans-stimulation, PfCRTDd2 [8, 13]: 112 ± 1.4 % PfCRTDd2 control | Tested as potential co-substrate but not required for influx of VF-6 via PfCRT into the oocyte [9]: X

— article PMC7413254 (Nature Communications, 2020)
